Experimental data from patent US11673890B2, “N1-pyrazolospiroketone acetyl-CoA carboxylase inhibitors” (Pfizer Inc., priority 2010, dated 2023).

Tests used:
[1] = target: T1, recombinant human ACC1 (rhACC1) (Homo sapiens, UniProt Q13085, DEL44-44); assay: recombinant hACC1 Transcreener assay (ADP detection FP); type: biochemical; details: recombinant hACC1 Transcreener assay, 50 μM ATP, minimum of n=3; read-out: hACC1
T1 construct: infected with recombinant baculovirus containing full length human ACC1 cDNA; made in house; host or cells: SF9 insect cells (baculovirus)
Protocol: For example direct inhibition of ACC activity, for the compound of Formula (1) was determined using preparations of recombinant human ACC1 (rhACC1) and recombinant human ACC2 (rhACC2).
[1] Preparation of rhACC1. Two liters of SF9 cells, infected with recombinant baculovirus containing full length human ACC1 cDNA, were suspended in ice-cold lysis buffer (25 mM Tris, pH 7.5; 150 mM NaCl; 10% glycerol; 5 mM imidazole (EMD Bioscience; Gibbstown, N.J.); 2 mM TCEP (BioVectra; Charlottetown, Canada); Benzonase nuclease (10000 U/100 g cell paste; Novagen; Madison, Wis.); EDTA-free protease inhibitor cocktail (1 tab/50 mL; Roche Diagnostics; Mannheim, Germany). Cells were lysed by 3 cycles of freeze-thaw and centrifuged at 40,000×g for 40 minutes (4° C.). Supernatant was directly loaded onto a HisTrap FF crude column (GE Healthcare; Piscataway, N.J.) and eluted with an imidazole gradient up to 0.5 M over 20 column volumes (CV). ACC1-containing fractions were pooled and diluted 1:5 with 25 mM Tris, pH 7.5, 2 mM TCEP, 10% glycerol and direct loaded onto a CaptoQ (GE Healthcare) column and eluted with an NaCl gradient up to 1 M over 20 CV's. Phosphate groups were removed from purified ACC1 by incubation with lambda phosphatase (100 U/10 μM target protein; New England Biolabs; Beverly, Mass.) for 14 hours at 4° C.; okadaic acid was added (1 μM final concentration; Roche Diagnostics) to inhibit the phosphatase. Purified ACC1 was exchanged into 25 mM Tris, pH 7.5, 2 mM TCEP, 10% glycerol, 0.5 M NaCl by 6 hour dialysis at 4° C. Aliquots were prepared and frozen at −80° C.
[2] […] The final conditions for the assay were 50 mM HEPES, pH 7.2, 10 mM MgCl2, 7.5 mM tripotassium citrate, 2 mM DTT, 0.1 mg/mL BSA, 30 μM acetyl-CoA, 50 μM ATP, and 10 mM KHCO3. Typically, a 10 μl reaction was run for 120 min at 25° C., and 10 μl of Transcreener stop and detect buffer was added and the combination incubated at room temp for an additional 1 hour.
All of the examples in both assays were run with a minimum of n=3.

[2] = target: T2, recombinant human ACC2 (rhACC2) (Homo sapiens, UniProt O00763, V2141I); assay: recombinant hACC2 Transcreener assay (ADP detection FP); type: biochemical; details: 50 μM ATP, minimum of n=3
T2 construct: a full length Cytomax clone of ACC2 was purchased from Cambridge Bioscience Limited; made in house; host or cells: CHO cells (tetracycline-inducible, pcDNA5 FRT TO-TOPO)
T2 sequence (O00763 whole entry V2141I): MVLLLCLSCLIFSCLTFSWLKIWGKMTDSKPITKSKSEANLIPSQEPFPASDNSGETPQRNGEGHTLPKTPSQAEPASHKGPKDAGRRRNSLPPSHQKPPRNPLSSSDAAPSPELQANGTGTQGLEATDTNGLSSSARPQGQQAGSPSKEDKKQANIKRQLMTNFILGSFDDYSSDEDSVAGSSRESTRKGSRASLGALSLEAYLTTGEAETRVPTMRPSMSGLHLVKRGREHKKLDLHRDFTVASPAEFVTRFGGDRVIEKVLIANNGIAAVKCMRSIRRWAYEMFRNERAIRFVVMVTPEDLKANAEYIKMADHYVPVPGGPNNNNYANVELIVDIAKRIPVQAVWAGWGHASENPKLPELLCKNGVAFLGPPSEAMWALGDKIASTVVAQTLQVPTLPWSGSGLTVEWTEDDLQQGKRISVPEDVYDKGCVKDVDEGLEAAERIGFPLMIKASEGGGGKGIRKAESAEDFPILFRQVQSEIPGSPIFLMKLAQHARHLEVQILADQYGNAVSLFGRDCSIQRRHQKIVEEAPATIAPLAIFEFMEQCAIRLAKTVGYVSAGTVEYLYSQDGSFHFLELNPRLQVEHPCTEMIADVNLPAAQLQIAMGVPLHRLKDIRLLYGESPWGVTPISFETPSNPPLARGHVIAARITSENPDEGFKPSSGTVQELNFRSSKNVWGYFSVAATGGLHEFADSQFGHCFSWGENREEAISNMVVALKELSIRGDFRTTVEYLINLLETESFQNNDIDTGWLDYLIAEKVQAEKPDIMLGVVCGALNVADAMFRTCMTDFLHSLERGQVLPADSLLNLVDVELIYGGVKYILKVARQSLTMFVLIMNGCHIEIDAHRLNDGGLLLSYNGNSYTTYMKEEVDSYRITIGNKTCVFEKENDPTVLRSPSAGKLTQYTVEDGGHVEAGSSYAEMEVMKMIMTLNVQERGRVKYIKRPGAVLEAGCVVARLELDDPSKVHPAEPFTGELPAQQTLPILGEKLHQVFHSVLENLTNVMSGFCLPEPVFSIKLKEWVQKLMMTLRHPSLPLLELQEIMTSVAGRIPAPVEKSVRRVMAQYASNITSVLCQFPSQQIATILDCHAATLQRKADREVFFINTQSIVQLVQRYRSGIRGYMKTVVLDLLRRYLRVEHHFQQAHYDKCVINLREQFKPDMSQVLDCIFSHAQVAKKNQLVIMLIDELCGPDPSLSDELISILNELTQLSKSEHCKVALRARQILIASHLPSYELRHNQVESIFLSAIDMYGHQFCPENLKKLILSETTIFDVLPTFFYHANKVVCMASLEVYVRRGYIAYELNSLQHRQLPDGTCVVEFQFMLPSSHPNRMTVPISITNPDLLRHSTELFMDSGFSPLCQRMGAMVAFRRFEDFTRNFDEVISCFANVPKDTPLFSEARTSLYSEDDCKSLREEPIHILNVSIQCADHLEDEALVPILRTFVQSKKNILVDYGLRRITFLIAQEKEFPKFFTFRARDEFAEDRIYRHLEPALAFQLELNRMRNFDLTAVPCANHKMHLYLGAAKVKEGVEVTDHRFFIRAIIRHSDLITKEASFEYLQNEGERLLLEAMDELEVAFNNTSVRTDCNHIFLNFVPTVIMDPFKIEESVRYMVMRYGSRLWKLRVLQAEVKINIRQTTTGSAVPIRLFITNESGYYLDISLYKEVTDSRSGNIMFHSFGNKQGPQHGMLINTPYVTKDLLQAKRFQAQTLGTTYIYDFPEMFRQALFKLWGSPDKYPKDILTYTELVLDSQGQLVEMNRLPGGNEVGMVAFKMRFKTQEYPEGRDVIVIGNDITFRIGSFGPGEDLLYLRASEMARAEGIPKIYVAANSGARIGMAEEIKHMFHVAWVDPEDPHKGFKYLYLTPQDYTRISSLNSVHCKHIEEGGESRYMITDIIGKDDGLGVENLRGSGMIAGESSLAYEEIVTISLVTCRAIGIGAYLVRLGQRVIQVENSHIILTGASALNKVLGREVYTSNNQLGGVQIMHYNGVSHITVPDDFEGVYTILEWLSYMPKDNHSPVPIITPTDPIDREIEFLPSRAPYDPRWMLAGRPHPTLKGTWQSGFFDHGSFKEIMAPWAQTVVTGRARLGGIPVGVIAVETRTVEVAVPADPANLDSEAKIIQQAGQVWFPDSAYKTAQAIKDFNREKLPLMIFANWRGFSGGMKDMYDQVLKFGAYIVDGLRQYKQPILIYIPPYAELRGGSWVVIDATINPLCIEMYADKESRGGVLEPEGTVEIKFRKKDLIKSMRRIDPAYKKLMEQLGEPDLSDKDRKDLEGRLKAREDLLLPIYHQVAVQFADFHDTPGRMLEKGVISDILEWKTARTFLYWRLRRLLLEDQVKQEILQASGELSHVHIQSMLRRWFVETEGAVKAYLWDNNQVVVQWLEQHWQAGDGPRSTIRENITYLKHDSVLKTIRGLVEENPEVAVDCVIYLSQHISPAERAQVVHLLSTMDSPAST
Protocol: For example direct inhibition of ACC activity, for the compound of Formula (1) was determined using preparations of recombinant human ACC1 (rhACC1) and recombinant human ACC2 (rhACC2). Representative sequences of the recombinant human ACC1 and ACC2 that can be used in the assay are provided in FIG. 1 (SEQ ID NO. 1) and FIG. 2 (SEQ. ID NO. 2), respectively.
[3] Preparation of rhACC2. Human ACC2 inhibition was measured using purified recombinant human ACC2 (hrACC2). Briefly, a full length Cytomax clone of ACC2 was purchased from Cambridge Bioscience Limited and was sequenced and subcloned into PCDNA5 FRT TO-TOPO (Invitrogen, Carlsbad, Calif.). The ACC2 was expressed in CHO cells by tetracycline induction and harvested in 5 liters of DMEM/F12 with glutamine, biotin, hygromycin and blasticidin with 1 μg/mL tetracycline (Invitrogen, Carlsbad, Calif.). The conditioned medium containing ACC2 was then applied to a Softlink Soft Release Avidin column (Promega, Madison, Wis.) and eluted with 5 mM biotin. 4 mgs of ACC2 were eluted at a concentration of 0.05 mg/mL (determined by A280) with an estimated purity of 95% ([…]). The purified ACC2 was dialyzed in 50 mM Tris, 200 mM NaCl, 4 mM DTT, 2 mM EDTA, and 5% glycerol. The pooled protein was frozen and stored at −80° C., with no loss of activity upon thawing. For measurement of ACC2 activity and assessment of ACC2 inhibition, test compounds were dissolved in DMSO and added to the rhACC2 enzyme as a 5× stock with a final DMSO concentration of 1%.
[4] Measurement of human ACC2 inhibition. hACC2 was assayed in a Costar #3676 (Costar, Cambridge, Mass.) 384-well plate using the Transcreener ADP detection FP assay kit (Bellbrook Labs, Madison, Wis.) using the manufacturer's recommended conditions for a 50 uM ATP reaction. The final conditions for the assay were 50 mM HEPES, pH 7.2, 5 mM MgCl2, 5 mM tripotassium citrate, 2 mM DTT, 0.1 mg/mL BSA, 30 μM acetyl-CoA, 50 μM ATP, and 8 mM KHCO3. Typically, a 10 μl reaction was run for 50 min at 25° C., and 10 μl of Transcreener stop and detect buffer was added and the combination incubated at room temp for an additional 1 hour. The data was acquired on an Envision Fluorescence reader (Perkinelmer) using a 620 excitation Cy5 FP general dual mirror, 620 excitation Cy5 FP filter, 688 emission (S) and a 688 (P) emission filter.
The results using the recombinant hACC1 and recombinant hACC2 Transcreener assays described above are summarized in the table below for the Compounds of Formula (I) exemplified in the Examples above. All of the examples in both assays were run with a minimum of n=3.

| Compound | IC50 [1] [nM] | IC50 [2] [nM] |
| --- | --- | --- |
| 3-{2-[(1-isopropyl-7-oxo-1,4,6,7-tetrahydro-1′H-spiro[indazole-5,4′-piperidin]-1′-yl)carbonyl]-1H-benzimidazol-4-yl}benzoic acid [Example 45] | 4.9 | 10 |
| 3-{5-[(1-isopropyl-7-oxo-1,4,6,7-tetrahydro-1′H-spiro[indazole-5,4′-piperidin]-1′-yl)carbonyl]-6-(methylamino)pyridin-2-yl}benzoic acid [Example 5] | 163 | 114 |
| 4-{5-[(1-tert-butyl-7-oxo-1,4,6,7-tetrahydro-1′H-spiro[indazole-5,4′-piperidin]-1′-yl)carbonyl]-6-(ethylamino)pyridin-2-yl}benzoic acid [Example 13] | 221 | 143 |
| 4-{5-[(1-tert-butyl-7-oxo-1,4,6,7-tetrahydro-1′H-spiro[indazole-5,4′-piperidin]-1′-yl)carbonyl]-6-(methylamino)pyridin-2-yl}benzoic acid [Example 12] | 152 | 94.5 |
| 4-{6-(ethylamino)-5-[(1-isopropyl-7-oxo-1,4,6,7-tetrahydro-1′H-spiro[indazole-5,4′-piperidin]-1′-yl)carbonyl]pyridin-2-yl}benzoic acid [Example 14] | 139 | 76.1 |
| CC(C)(C)n1ncc2c1C(=O)CC1(CCN(C(=O)c3ccc(OCc4ccc(C(=O)O)cc4)cc3)CC1)C2 [Example 1, 4-((4-(1-Tert-butyl-7-oxo-1,4,6,7-tetrahydrospiro[indazole-5,4′-piperidine]-1′-ylcarbonyl)phenoxy)methyl)benzoic acid] | 176 | 184 |
| COc1cc(C(=O)N2CCC3(CC2)CC(=O)c2c(cnn2C(C)C)C3)cc(-c2cccc(C(=O)O)c2)n1 [Example 2, 3-(4-(1-Isopropyl-7-oxo-1,4,6,7-tetrahydrospiro[indazole-5,4′-piperidine]-1′-ylcarbonyl)-6-methoxypyridin-2-yl)benzoic acid] | 59.6 | 84.1 |
| CC(C)n1ncc2c1C(=O)CC1(CCN(C(=O)c3cc(-c4cccc(C(=O)O)c4)[nH]c(=O)c3)CC1)C2 [Example 3, 3-(4-(1-isopropyl-7-oxo-1,4,6,7-tetrahydrospiro[indazole-5,4′-piperidine]-1′-ylcarbonyl)-6-oxo-1,6-dihydropyridin-2-yl)benzoic acid] | 5400 | 2260 |
| CNc1nc(-c2cccc(C(=O)O)c2)ccc1C(=O)N1CCC2(CC1)CC(=O)c1c(cnn1C(C)(C)C)C2 [Example 4, 3-{5-[(1-tert-butyl-7-oxo-1,4,6,7-tetrahydro-1′H-spiro[indazole-5,4′-piperidin]-1′-yl)carbonyl]-6-(methylamino)pyridin-2-yl}benzoic acid] | 116 | 53 |
| CC(C)(C)n1ncc2c1C(=O)CC1(CCN(C(=O)c3ccc(-c4cccc(C(=O)O)c4)cc3)CC1)C2 [Example 6, 4′-[(1-tert-butyl-7-oxo-1,4,6,7-tetrahydro-1′H-spiro[indazole-5,4′-piperidin]-1′-yl)carbonyl]biphenyl-3-carboxylicacid] | 260 | 115 |
| CC(C)n1ncc2c1C(=O)CC1(CCN(C(=O)c3ccc(-c4cccc(C(=O)O)c4)cc3)CC1)C2 [Example 7, 4′-[(1-isopropyl-7-oxo-1,4,6,7-tetrahydro-1′H-spiro[indazole-5,4′-piperidin]-1′-yl)carbonyl]biphenyl-3-carboxylic acid] | 113 | 74.2 |
| CNc1nc(-c2ccc(C(=O)O)cc2)ccc1C(=O)N1CCC2(CC1)CC(=O)c1c(cnn1C(C)C)C2 [Example 8, 4-{5-[(1-isopropyl-7-oxo-1,4,6,7-tetrahydro-1′H-spiro[indazole-5,4′-piperidin]-1′-yl)carbonyl]-6-(methylamino)pyridin-2-yl}benzoic acid] | 156 | 175 |
